The source of these data is US10131644B2, “Aryl sultam derivatives as RORc modulators” (Genentech, Inc., priority 2014, dated 2018).

The target of the experiment is T1, RORc (Homo sapiens, UniProt P51449).
T1 sequence (P51449 269-508 limits assumed): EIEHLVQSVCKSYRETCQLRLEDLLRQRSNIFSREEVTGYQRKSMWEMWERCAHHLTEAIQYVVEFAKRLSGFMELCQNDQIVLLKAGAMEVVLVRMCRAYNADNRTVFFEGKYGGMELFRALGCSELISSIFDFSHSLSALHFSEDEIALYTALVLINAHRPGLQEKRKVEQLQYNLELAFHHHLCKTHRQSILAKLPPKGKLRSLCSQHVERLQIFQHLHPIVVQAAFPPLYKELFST
The experiment in a line: In vitro RORc ligand binding assay (25-[3H]hydroxycholesterol displacement). Particulars: IC50, IC50 values for RORc; unit inferred.
Protocol: This assay was used to determine a compound's potency in inhibiting activity of RORc by determining, Kiapp, IC50, or percent inhibition values.
On day of the assay, 100 uL of 0.05% CHAPS (in deionized H2O) was added to all wells of the GFB Unifilter plate and allowed soak for 1 h. A wash buffer of 50 mM HEPES (pH 7.4), 150 mM NaCl, and 5 mM MgCl2 was prepared to wash the filter plate. To prepare an assay buffer, BSA was added to the wash buffer to reach 0.01% and DTT was added to reach 1 mM.
The 20× compound stocks were diluted in DMSO with Assay Buffer 4-fold to reach 5× the final test concentration in 25% DMSO (10 uL compound+30 uL Assay Buffer). Solutions were mixed by aspiration several times with a pipette set on 50 uL volume. For the assay, 10 uL of 5× compound stock solutions in 25% DMSO were added to the assay plate in duplicate.
For two point screening, 10 mM stock compound solutions were diluted in DMSO to obtain 200 uM (20× the high test concentration) and then diluted 10-fold further to reach 20 uM (20× the low test concentration). The 20× stocks were diluted 4-fold with Assay Buffer (10 uL compound+30 uL Assay Buffer) to reach 5× the test concentrations (50 uM and 5 uM) and 10 uL were added to two assay plates for the duplicate wells. With each concentration tested on 2 plates, each set of 80 compounds used 4 assay plates (1 uM and 10 uM, with n=2).
For 25-hydroxycholesterol in 25% DMSO/75% Assay Buffer; 10 uL per well was used for NSB samples. Wells for Total Binding and No Receptor sample determination contained 10 uL of 25% DMSO/75% Assay Buffer per well.
Add 20 uL to all wells to reach 6 nM final in the assay.
Stock receptor solution was diluted in assay buffer to obtain 1.5 ug/mL in Assay Buffer. 20 uL was added to all wells. For No R samples, 20 uL Assay Buffer was substituted for receptor solution.
Assay plates were 96-well polypropylene V-bottom plates. 10 uL of 5× compound in 25% DMSO/75% Assay Buffer was added to Test wells. 10 uL of 25% DMSO/75% Assay Buffer was added to Total Binding or No Receptor wells. 10 uL of 5 uM 25-hydroxycholesterol in 25% DMSO/75% Assay Buffer was added to NSB wells. […] 20 uL of 1.5 ug/mL RORc receptor was added to wells (or 40 uL Assay Buffer to No R wells). Following addition to the wells, the plates were incubated 3 h at 25° C.
Using a Packard Filtermate Harvester, the filter plate were washed 4 times following transfer of the incubated samples. Plates were dry-filtered completely (2 h at 50° C. or overnight at room temperature). 50 uL Microscint 0 was added to all wells and read on Topcount protocol Inverted.
For NSB wells, 1 uM 25-hydroxycholesterol was also present.
On to `C[C@H]1CC[C@H](c2ccccc2)S(=O)(=O)N1Cc1ccc(C2(NC(=O)OC(C)(C)C)CC2)cc1F` [Compound 152, tert-butyl N-[1-[3-fluoro-4-[[(3S,6R)-3-methyl-1,1-dioxo-6-phenyl-thiazinan-2-yl]methyl]phenyl]cyclopropyl]carbamate], for which the half-maximal inhibitory concentration (IC50) (commonly the midpoint of a concentration-inhibition curve) was 227 nM. This lies in the sub-micromolar range. With `C[C@H]1CC[C@H](c2ccccc2)S(=O)(=O)N1Cc1cc(F)c(C2(C#N)CCOCC2)cc1F` [Compound 122, 4-[2,5-difluoro-4-[[(3S,6R)-3-methyl-1,1-dioxo-6-phenyl-thiazinan-2-yl]methyl]phenyl]tetrahydropyran-4-carbonitrile] the figure was 26.8 nM; with `C[C@H]1CC[C@H](c2ccccc2)S(=O)(=O)N1Cc1cc(F)c(C2(C(=O)O)CCOCC2)cc1F` [Compound 96, 4-[2,5-difluoro-4-[[(3S,6R)-3-methyl-1,1-dioxo-6-phenyl-thiazinan-2-yl]methyl]phenyl]tetrahydropyran-4-carboxylic acid], 214 nM; with `CCOC(=O)[C@@H](C)NC1(c2ccc(CN3[C@@H](C)CC[C@H](c4ccccc4)S3(=O)=O)c(F)c2)CCOCC1` [Compound 172, ethyl (2R)-2-[[4-[3-fluoro-4-[[(3S,6R)-3-methyl-1,1-dioxo-6-phenyl-thiazinan-2-yl]methyl]phenyl]tetrahydropyran-4-yl]amino]propanoate], 120 nM. With `COC(=O)[C@]1(c2ccc(CN3[C@@H](C)CC[C@H](c4ccccc4)S3(=O)=O)cc2)CC[C@@H](n2cnnc2)CC1` [Example 12, 1-[4-((3S,6R)-3-Methyl-1,1-dioxo-6-phenyl-[1,2]thiazinan-2-ylmethyl)-phenyl]-4-[1,2,4]triazol-4-yl-cyclohexanecarboxylic acid methyl ester] the figure was 630 nM.

In the case of `C[C@H]1CC[C@H](c2ccccc2)S(=O)(=O)N1Cc1ccc(C2(C#N)CCOCC2)cc1` [Compound 30, 4-[4-((3S,6R)-3-Methyl-1,1-dioxo-6-phenyl-[1,2]thiazinan-2-ylmethyl)-phenyl]-tetrahydro-pyran-4-carbonitrile], the IC50 is 680 nM. With `C[C@H]1CC[C@H](c2ccccc2)S(=O)(=O)N1Cc1ccc(C2(C(N)=O)CCC3(CC2)OCCO3)cc1F` [Example 22, 8-[3-Fluoro-4-((3S,6R)-3-methyl-1,1-dioxo-6-phenyl-[1,2]thiazinan-2-ylmethyl)-phenyl]-1,4-dioxa-spiro[4.5]decane-8-carboxylic acid amide] the figure was 30 nM. `CNC(=O)COC1(c2cc(F)c(CN3[C@@H](C)CC[C@H](c4ccccc4)S3(=O)=O)cc2F)CCOCC1` [Compound 154, 2-[4-[2,5-difluoro-4-[[(3S,6R)-3-methyl-1,1-dioxo-6-phenyl-thiazinan-2-yl]methyl]phenyl]tetrahydropyran-4-yl]oxy-N-methyl-acetamide]: the IC50 was 5.7 nM. Compound `C[C@H]1CC[C@H](c2ccccc2)S(=O)(=O)N1Cc1cc(F)c(C2(OCC(=O)O)CCOCC2)cc1F` [Compound 145, 2-[4-[2,5-difluoro-4-[[(3S,6R)-3-methyl-1,1-dioxo-6-phenyl-thiazinan-2-yl]methyl]phenyl]tetrahydropyran-4-yl]oxyacetic acid] came in with an IC50 of 14.3 nM.

On to `COCCNC(=O)C1(c2ccc(CN3[C@@H](C)CC[C@H](c4ccccc4)S3(=O)=O)c(F)c2)CCOCC1` [Compound 64, 4-[3-fluoro-4-[[(3S,6R)-3-methyl-1,1-dioxo-6-phenyl-thiazinan-2-yl]methyl]phenyl]-N-(2-methoxyethyl)tetrahydropyran-4-carboxamide], for which the IC50 was found to be 89 nM. This IC50 lies about 6.2-fold higher than the previous one.

Compound `C[C@H]1CC[C@H](c2ccccc2)S(=O)(=O)N1Cc1ccc(C2(OCCO)CCOCC2)cc1F` [Compound 99, 2-[4-[3-fluoro-4-[[(3S,6R)-3-methyl-1,1-dioxo-6-phenyl-thiazinan-2-yl]methyl]phenyl]tetrahydropyran-4-yl]oxyethanol] yielded a 50% inhibitory concentration (IC50) of 66.4 nM.
